Experiment [1] has as its system H. pylori strains ATCC 43504. On the set-up: method as in PMID 18780820. As to conditions: cited from earlier work.
For a further experiment, the system named is H. pylori strain SS1. Kind of experiment: Anti-H. pylori activity assay, MIC by standard agar dilution method. In kind it is cell-based. As to conditions: Helicobacter pylori, SS1, 72 h, 3 days, 37°C, microaerobic. As to the method: (§1) The bacterial growth inhibition activity for Emodin was evaluated by using Paper Discus Method. DMSO and ampicillin paper were used as negative and positive control respectively. The minimum inhibitory concentrations (MIC) values were determined by the standard agar dilution method using Columbia agar supplemented with 10% sheep blood containing two-fold serial dilutions of Emodin. The plates were inoculated with a bacterial suspension (10^8 cfu/ml) in Brain Heart Infusion broth with a multipoint inoculator. Compound-free Columbia agar media were used as controls. Inoculated plates were incubated at 37°C under microaerobic conditions (85% N2, 10% CO2 and 5% O2) and examined after 3 days.
(§2) The inhibition activities of Emodin against H. pylori strains SS1 and ATCC 43504 were assayed according to the standard agar dilution method.
Background: In agar dilution the substance is mixed into plates at graded concentrations.

The test system of experiment [2] is H. pylori strain ATCC 43504. The description is as above. The experiment is classed as cell-based. As to conditions: Helicobacter pylori, ATCC43504, 72 h, 3 days, 37°C, microaerobic. As to the method:
as §1, §2

For experiment [3], the target named is T1, HpFabZ (Helicobacter pylori, UniProt Q5G940). Kind of experiment: HpFabZ enzymatic inhibition assay (spectrophotometric, substrate crotonoyl-CoA). In kind it is biochemical. As to the method:
The expression, purification and enzymatic inhibition assay of HpFabZ enzyme were performed according to the previously published approach with slight modification. The compounds dissolved in 1% DMSO (Dimethyl sulfoxide) were incubated with the enzyme for 2 hours before the assay started. The IC50 value of Emodin was estimated by fitting the inhibition data to a dose-dependent curve using a logistic derivative equation. The inhibition type of Emodin against HpFabZ was determined in the presence of varied inhibitor concentrations. After 2h-incubation, the reaction was started by the addition of crotonoyl-CoA. The Ki value was obtained from Lineweaver-Burk double-reciprocal plots and subsequent secondary plots.
The recombinant HpFabZ enzyme was prepared according to our previously published report. The spectrophotomeric enzyme inhibition assay approach was used for randomly screening HpFabZ inhibitor against our lab in-house natural product library. In addition, to optimize the screening efficiency and creditability, the pH profile of HpFabZ and the potential effects of DMSO on enzymatic activity were investigated [see Additional files 1, 2 and 3]. As shown in Additional file 2: Fig. S1, the pH optimum of HpFabZ was 8.0 and 1% DMSO for dissolving the tested compound had no obvious effect on the enzymatic activity (Additional file 3: Fig. S2.)

Experiment [4] addresses T1, HpFabZ. Kind of experiment: SPR (Biacore 3000) binding assay of Emodin to immobilized HpFabZ. As to conditions: 25°C. As to the method: The binding of Emodin to HpFabZ was analyzed by SPR technology based Biacore 3000 instrument (Biacore AB, Uppsala, Sweden). All the experiments were carried out using HBS-EP (10 mM HEPES pH 7.4, 150 mM NaCl, 3.4 mM EDTA and 0.005% surfactant P20) as running buffer with a constant flow rate of 30 μL/min at 25°C. HpFabZ protein, which was diluted in 10 mM sodium acetate buffer (pH 4.13) to a final concentration of 1.3 μM, was covalently immobilized on the hydrophilic carboxymethylated dextran matrix of the CM5 sensor chip (BIAcore) using standard primary amine coupling procedure. Emodin was dissolved in the running buffer with different concentrations ranging from 0.625 to 20 μM. All data were analyzed by BIAevaluation software, and the sensorgrams were processed by automatic correction for nonspecific bulk refractive index effects. The kinetic analyses of the Emodin/HpFabZ binding were performed based on the 1:1 Langmuir binding fit model according to the procedures described in the software manual.
SPR technology based Biacore 3000 instrument was used to investigate the kinetic feature of Emodin binding to HpFabZ.
The 1:1 Langmuir binding model was used to fit the kinetic parameters regarding the Emodin/HpFabZ binding process, in which the association rate constant (ka) and dissociation rate constant (kd) were fitted simultaneously by rate Equation 1,(1) [drawing 1]
Where, R represents the response unit, C is the concentration of the Emodin, Rmax stands for the maximal response. The equilibrium dissociation constant (KD) was determined by Equation 2.(2) [drawing 2]
Background: In SPR one partner is held on a chip, and binding of the other changes the refractive index at the surface.

Experiment [5] addresses T1, HpFabZ. Kind of experiment: ITC based assay of Emodin/HpFabZ binding. As to conditions: 25°C. As to the method: ITC experiments were performed on a VP-ITC Microcalorimeter (Microcal, Northampton, MA, USA) at 25°C. HpFabZ was dialysed extensively against 20 mM Tris (pH 8.0), 500 mM NaCl and 1 mM EDTA at 4°C. Appropriate concentration of Emodin was prepared from a 50 mM stock in DMSO, and corresponding amount of DMSO (25%) was added to the protein solution to match the buffer composition. The reference power was set to 15 μCal/sec and the cell contents were stirred continuously at 300 rpm throughout the titrations. After an initial injection of Emodin (3 μL, not used for data fitting), 29 injections (6 μL each) were performed with a 3 min-delay between each injection, and then the heat changes were monitored. Blank titrations of Emodin into buffer were also performed to correct for the heats generated by dilution and mixing. The binding isotherm was fit by the single binding site model using a non-linear least squares method based on Origin (Microcal Software, Northampton, MA, USA).
To inspect the kinetic and thermodynamic characters regarding the inhibition of Emodin against HpFabZ enzyme, ITC technology based assay was performed. […] The ITC titration data in Table 2 has clearly established a 1:1 stoichiometry for HpFabZ-Emodin complex formation. Based on the obtained thermodynamic data (ΔH = -17.77 ± 1.11 kcal/mol, TΔS = -9.12 kcal/mol, ΔG = -8.65 kcal/mol), it was easily concluded that the enthalpy contributed favorably to the binding free energy in Emodin/HpFabZ interaction, indicating a significant enthalpy driven binding of Emodin to HpFabZ.

For the next experiment, the system named is H. pylori strains SS1. On the set-up: method as in PMID 18565285. As to conditions: cited from earlier work.

In brackets after ≈: the same amount, converted by molar mass.

T1 sequence (Q5G940 entry or part of it): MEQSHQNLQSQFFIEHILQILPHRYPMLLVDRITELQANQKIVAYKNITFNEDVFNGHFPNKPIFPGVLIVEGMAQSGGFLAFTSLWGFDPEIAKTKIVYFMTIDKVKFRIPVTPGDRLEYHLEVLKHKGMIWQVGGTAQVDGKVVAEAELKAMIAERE

As for `COc1cc(O)c2c(c1)O[C@H](c1ccc(O)cc1)CC2=O` [(S)-Sakuranetin], in experiment [1], the “MIC, H. pylori strains ATCC 43504” value is 25 µg/mL (≈ 87.3 µM).
With `O=c1cc(-c2ccc(O)cc2)oc2cc(O)cc(O)c12` [Apigenin], the “MIC, H. pylori strains ATCC 43504” value in experiment [1] was 25 µg/mL (≈ 92.5 µM).
As usually defined, the MIC is the smallest concentration in the dilution series that meets the test's criterion for growth inhibition. Read a low MIC as greater potency. As usually defined, the IC50 is the concentration needed to halve the response being measured. The Ki is a measure of affinity in units of concentration, obtained from inhibition or displacement. A word on the Kd: it is a measure of binding affinity in units of concentration. `Cc1cc(O)c2c(c1)C(=O)c1cc(O)cc(O)c1C2=O` [Emodin, 3-methyl-1,6,8-trihydroxyanthraquinone] gave an MIC in the experiment on H. pylori strain SS1 of 5 µg/mL (≈ 18.5 µM). In experiment [2], this compound showed an MIC of 10 µg/mL (≈ 37 µM). The compound further gave an IC50 at HpFabZ [3] (2 h preincubation with enzyme, 1% DMSO) of 9.7 ± 1 µM. Moreover, at HpFabZ [3] (Lineweaver-Burk and secondary plots, substrate crotonoyl-CoA, read-out: Ki, HpFabZ enzyme inhibition), the Ki turned out to be 1.9 ± 0.3 µM. Moreover, at HpFabZ [3] (versus substrate crotonoyl-CoA, double reciprocal plots), the Inhibition type entry was “Competitive”. Besides, on HpFabZ [4] (1:1 Langmuir fit), the “Rmax, maximum analyte binding capacity” value is given as 42.3 ± 1.51 RU and the “kd, dissociation rate constant” value is given as 0.193 ± 0.0061 per s. The Kd on HpFabZ [4] (HpFabZ immobilized on CM5 chip, read-out: KD, equilibrium dissociation constant determined by SPR) was found to be 4.59 µM. Also, on HpFabZ [5], the TΔS is -9.12 kcal/mol, the ΔG is listed as -8.65 kcal/mol and the ΔH was -17.77 ± 1.11 kcal/mol. Further, the Kd at HpFabZ [5] (read-out: KD', equilibrium dissociation constant determined by ITC) turned out to be 0.45 µM. For the same compound, the “N, stoichiometry of Emodin-HpFabZ complex” value on HpFabZ [5] (single binding site model) is on record as 1.07 ± 0.035.
Take `O=C1C=CC(=O)c2c(O)cccc21` [Juglone]: in the experiment on H. pylori strains SS1, the “MIC, H. pylori strains SS1” value was 5 µg/mL (≈ 28.7 µM).
`O=c1c(O)c(-c2ccc(O)c(O)c2)oc2cc(O)cc(O)c12` [Quercetin]: in experiment [1], the “MIC, H. pylori strains ATCC 43504” value was 100 µg/mL (≈ 331 µM).

Values taken from publication PMC2692856, “Emodin targets the β-hydroxyacyl-acyl carrier protein dehydratase from Helicobacter pylori: enzymatic inhibition assay with crystal structural and thermodynamic characterization” (BMC Microbiology, 2009).
